Assay results: patent US4996225A, “Tri-phenyl alkane derivatives and their oestrogenic, anti-oestrogenic and progestanic uses” (Farmos Group Ltd., priority 1982, dated 1991)
Values belong to the compound of their own block, whether it stands above or below them.

Key:
[1] = target: T1, oestrogen receptors (Rattus norvegicus, UniProt P06211); assay: affinity for oestrogen receptors, competition with 3H-17-β-estradiol in rat uterus cytosol (dextran-charcoal method); assay type: binding; conditions: read-out: Estrogen receptor affinity (concentration of compound where 50% competition (inhibition) with 3H-estradiol occurred)
T1 construct: rat uterus cytosol preparation; from tissue; host or cells: rat uterus cytosol
T1 sequence (P06211 1-600): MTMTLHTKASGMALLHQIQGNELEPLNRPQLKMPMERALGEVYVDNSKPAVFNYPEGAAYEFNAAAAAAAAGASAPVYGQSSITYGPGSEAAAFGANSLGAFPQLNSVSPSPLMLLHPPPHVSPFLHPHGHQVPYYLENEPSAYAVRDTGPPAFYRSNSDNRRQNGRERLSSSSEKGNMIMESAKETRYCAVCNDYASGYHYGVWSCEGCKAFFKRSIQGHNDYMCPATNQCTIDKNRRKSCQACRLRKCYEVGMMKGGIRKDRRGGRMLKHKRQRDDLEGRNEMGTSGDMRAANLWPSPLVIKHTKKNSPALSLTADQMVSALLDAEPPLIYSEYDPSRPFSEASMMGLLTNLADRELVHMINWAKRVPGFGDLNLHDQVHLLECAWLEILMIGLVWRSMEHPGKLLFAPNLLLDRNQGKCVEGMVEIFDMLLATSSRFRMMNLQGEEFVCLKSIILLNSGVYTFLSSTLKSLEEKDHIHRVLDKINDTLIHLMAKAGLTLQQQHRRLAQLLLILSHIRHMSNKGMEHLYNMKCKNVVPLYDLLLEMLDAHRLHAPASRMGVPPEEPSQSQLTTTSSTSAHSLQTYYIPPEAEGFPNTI
Experimental: The affinity of the new compounds for oestrogen receptors was determined by the ability to compete with ^3 H-labelled 17-β-estradiol in rat uterus cytosol preparation. After incubation, receptor-bound and receptor-unbound ligands were separated by a known dextrancharcoal method.

[2] = tested on: immature mouse uterus; assay: oestrogenic effect, uterus weight of immature mice; assay type: in vivo; conditions: for estrogenic effect of their own (in words): up to 5 mg/kg
Experimental: (§1) The oestrogen-antiestrogen (progesterone) effect of the new compounds in vivo was determined as follows: (1) The oestrogenic properties were determined by administering the new compounds, suspended in sesame oil, subcutaneously to 21 days old immature mice on three consecutive days. The mice were killed on the fourth day and the uterus was weighed. […] The weight correlates with the oestrogenic effect of the compound tested. […] In this case, the ability of the molecules to inhibit oestrogen-induced uterus weight increase was also investigated.

[3] = tested on: estradiol induced weight increase in immature mouse uterus; assay: antiestrogenic effect, inhibition of oestrogen-induced uterus weight increase in immature mice; assay type: in vivo; conditions: for inhibition of estradiol-induced uterus weight increase (in words) / inhibition of estradiol-induced uterus weight increase / inhibition of estradiol induced effect in mouse uterus: 5 mg/kg; for inhibition of estradiol-induced uterus weight increase (in words) / inhibition of estradiol-induced uterus weight increase: estradiol 5 μg/kg; for anti-estrogenic effect (in words): immature mouse uterus; for effect with estradiol (in words) / reduction in the weights of mice uterus, with estradiol: with estradiol 0.05 mg/kg
Experimental: as §1

[4] = tested on: MCF-7 cell line (human mammary adenocarcinoma); assay: anti-tumour effect in vitro, growth of MCF-7 cell line (bioluminescence assay, intracellular ATP); assay type: cell-based; conditions: read-out: Antitumour effect against MCF-7 cell line (IC50 = concentration of compound where 50% inhibition of cell growth could be seen)
Experimental: The anti-tumour effect was studied in vitro as follows:
The amount of living cells after 4 h, 24 h and 48 h incubations were determined by bioluminescence assay (intracellular ATP determination).
inhibition of cell growth could be seen.

[5] = tested on: DMBA-induced rat mammary adenocarcinomas; assay: antitumour effect in vivo against DMBA-induced rat mammary adenocarcinoma; conditions: for growth rate of the tumours (in words) / amount of new tumours (in words): rat, in vivo
Experimental: The anti-tumour effect was investigated in vivo against DMBA-induced rat mammary adenocarcinomas, transplantable mammary and ovarial adenocarcinoma and transplantable prostatic squamous cell carcinoma by the following methods:
Mammary adenocarcinomas were induced by DMBA in 35-40 days old female rats. […] Tumour size and numbers of tumours were evaluated twice a week. Tumour sizes in the control group, treated with solvent, were compared with the test groups.
The size refers to the width×height of the tumour. The growth rate is a difference between sizes compared with that of the first day of the treatment.

[6] = tested on: immature mouse uterus; assay: progestanic effect, uterus weight of immature mice (alone or with medroxyprogesterone acetate); assay type: in vivo; set-up: reduction in the weight of a mouse uterus, given alone / reduction in the weight of uterus with medroxyprogesterone / reduction in the weights of mice uterus, given alone: concentration or dose not given beside the values
[7] = with medroxyprogesterone 0.06 mg/kg

Structure (SMILES): OCCC(c1ccc(O)cc1)C(O)(c1ccccc1)c1ccc(O)cc1 (centres unmarked) [Compound 8, 1-phenyl-1,2-bis(4-hydroxyphenyl)-butane-1,4-diol]
- IC50 [1]: 1 to 10 µM

Structure (SMILES): CC(=O)OCC/C(=C(\c1ccccc1)c1ccc(OCCN(C)C)cc1)c1ccccc1 [Compound 19]
- increase in uterus weight ([2]; 5 mg/kg): ≤ 30%
- inhibition of estradiol-induced uterus weight increase (in words) [3]: did not inhibit
- IC50 [4]: 1 to 5 µM
- growth rate of the tumours (in words) [5]: only the growth rate of the tumours was reduced

Structure (SMILES): CN(C)CCOc1ccc(/C(=C(/CCO)c2ccccc2)c2ccccc2)cc1 [Compound 20, 1,2-diphenyl-1-[4-[2-(N,N-dimethylamino)ethoxy]phenyl]-1-buten-4-ol]
- increase in uterus weight ([2]; 5 mg/kg): less than 30%
- increase in uterus weight (in words) ([2]; 5 mg/kg): statistically significant increase in uterus weight
- inhibition of estradiol-induced uterus weight increase [3]: less than 33%
- inhibition of estradiol-induced uterus weight increase (in words) [3]: inhibited the uterus weight increase in a statistically significant manner
- growth rate of the tumours (in words) [5]: only the growth rate of the tumours was reduced

Structure (SMILES): OCC[C@H](c1ccccc1)[C@@](O)(c1ccccc1)c1ccc(O)cc1 (relative stereo) [Compound 1, 1,2-diphenyl-1-(4-hydroxyphenyl)-butane-1,4-diol]
- IC50 [1]: 1 to 10 µM

Structure (SMILES): CC(=O)O[C@]1(C(C)=O)CC[C@H]2[C@@H]3C[C@H](C)C4=CC(=O)CC[C@]4(C)[C@H]3CC[C@@]21C [Medroxyprogesterone acetate, reference compound]
- inhibition in the weight of immature mouse uterus ([6]; positive control): up to 40%

Structure (SMILES): ClCC[C@H](c1ccccc1)[C@H](c1ccccc1)c1ccc(OCCN2CCCC2)cc1 (relative stereo) [Compound 28, 4-chloro-1,2-diphenyl-1-[4-[2-(1-pyrrolidinyl)-ethoxy]phenyl]-butane]
- increase in uterus weight ([2]; 5 mg/kg): ≤ 55%
- inhibition of estradiol-induced uterus weight increase [3]: 68-100%
- IC50 [4]: 5 to 10 µM
- amount of new tumours (in words) [5]: the amount of new tumours decreased
- growth rate of the tumours (in words) [5]: the growth rate of the tumours decreased

Structure (SMILES): CN(C)CCOc1ccc([C@](O)(c2ccccc2)[C@H](CCO)c2ccccc2)cc1 (relative stereo) [Compound 17, 1,2-diphenyl-1-[4-[2-(N,N-dimethylamino)-ethoxy]phenyl]butane-1,4-diol]
- IC50 [1]: 10 to 100 µM
- estrogenic effect of their own (in words) [2]: no estrogenic effect of their own

Structure (SMILES): CN(C)CCOc1ccc(/C(=C(\CCCl)c2ccccc2)c2ccccc2)cc1 [Compound 18, 4-chloro-1,2-diphenyl-1-[4-[2-(N,N-dimethylamino)ethoxy]phenyl]-1-butene]
- effect given alone: estrogenic (in words) [2]: estrogenic
- increase in the weights of mice uterus, given alone [2]: 20%
- effect with estradiol (in words) [3]: not anti-
- reduction in the weights of mice uterus, with estradiol [3]: < 10%
- effect with medroxyprogesterone (in words) [6, 7]: no effect
- IC50 [4]: 1 to 5 µM

Structure (SMILES): OCC/C(=C(/c1ccccc1)c1ccc(O)cc1)c1ccccc1 [Compound 10, 1,2-diphenyl-1-(4-hydroxypheny)-1-buten-4-ol]
- IC50 [1]: 0.1 to 1 µM

Structure (SMILES): ClCC[C@@H](c1ccccc1)[C@H](c1ccccc1)c1ccc(OCCN2CCCC2)cc1 (relative stereo) [Compound 27, 4-chloro-1,2-diphenyl-1-[4-[2-(1-pyrrolidinyl)-ethoxy]phenyl]-butane]
- increase in uterus weight ([2]; 5 mg/kg): ≤ 55%
- inhibition of estradiol-induced uterus weight increase [3]: less than 33%
- IC50 [4]: 1 to 5 µM
- amount of new tumours (in words) [5]: the amount of new tumours decreased
- growth rate of the tumours (in words) [5]: the growth rate of the tumours decreased

Structure (SMILES): OCC/C(=C(\c1ccccc1)c1ccc(O)cc1)c1ccccc1 [Compound 11, 1,2-diphenyl-1-(4-hydroxyphenyl)-1-buten-4-ol]
- IC50 [1]: 1 to 10 µM
- estrogenic effect of their own (in words) [2]: no estrogenic effect of their own
- inhibition of estradiol induced effect in mouse uterus [3]: 31%
- effect given alone: antiestrogenic (in words) ([3]; given alone): anti-
- anti-estrogenic effect (in words) [3]: possessed anti-estrogenic effects
- effect with estradiol (in words) [3]: anti-
- reduction in the weights of mice uterus, with estradiol [3]: 31%
- reduction in the weight of a mouse uterus, given alone ([6]; given alone): 56%
- reduction in the weights of mice uterus, given alone ([6]; given alone, Table 2A): 56%
- interaction with medroxyprogesterone (in words) ([6]; with medroxyprogesterone): synergistic effect with medroxyprogesterone
- effect with medroxyprogesterone (in words) [6, 7]: no inhibition
- reduction in the weights of mice uterus with medroxyprogesterone, compared to control [6, 7]: 40%

Structure (SMILES): OCCCC(=C(c1ccccc1)c1ccc(O)cc1)c1ccccc1 [Compound 6, 1,2-diphenyl-1-(4-hydroxyphenyl)-1-penten-5-ol]
- IC50 [1]: 0.1 to 10 µM

Structure (SMILES): ClCC/C(=C(/c1ccccc1)c1ccc(OCCN2CCCC2)cc1)c1ccccc1 [Compound 26, 4-chloro-1,2-diphenyl-1-[4-[2-(1-pyrrolidinyl)-ethoxy]phenyl]-1-butene]
- increase in uterus weight ([2]; 5 mg/kg): ≤ 30%
- inhibition of estradiol-induced uterus weight increase [3]: less than 33%
- IC50 [4]: 1 to 5 µM
- growth rate of the tumours (in words) [5]: only the growth rate of the tumours was reduced

Structure (SMILES): CCN(CC)CCOc1ccc(/C(=C(/CCCl)c2ccccc2)c2ccccc2)cc1 [Compound 24, 4-chloro-1,2-diphenyl-1-[4-[2-(N,N-diethylamino)ethoxy]phenyl]-1-butene]
- increase in uterus weight ([2]; 5 mg/kg): ≤ 55%
- inhibition of estradiol-induced uterus weight increase [3]: less than 67%
- IC50 [4]: 1 to 5 µM
- growth rate of the tumours (in words) [5]: only the growth rate of the tumours was reduced

Further lines, with some results ahead:

- IC50 [1]: 10 to 100 µM
- IC50 [4]: 1 to 5 µM
Structure (SMILES): CN(C)CCOc1ccc(/C(=C(\CCO)c2ccccc2)c2ccccc2)cc1 [Compound 12, 1,2-diphenyl-1-[4-[2-(N,N-dimethylamino)-ethoxy]phenyl]-1-buten-4-ol]
- antitumour effect against DMBA-induced mammary cancer (in words) ([5]; compared with compound 7): Antitumour effect less than that of compound 7

- IC50 [1]: 1 to 10 µM
Structure (SMILES): COc1ccc(C(=C(CCO)c2ccccc2)c2ccccc2)cc1 [Compound 3, 1,2-diphenyl-1-(4-methoxyphenyl)-1-buten-4-ol]

- IC50 [1]: 0.1 to 1 µM
- IC50 [4]: 5 to 10 µM
Structure (SMILES): Oc1ccc([C@@H](c2ccccc2)[C@@H](CCCl)c2ccccc2)cc1 (relative stereo) [Compound 14, 4-chloro-1,2-diphenyl-1-(4-hydroxyphenyl)-butane]
- estrogenic effect: less than that of estradiol 0.05 mg/kg ([2]; 5 mg/kg): about 50%
- effect given alone: estrogenic (in words) [2]: estrogenic
- increase in the weights of mice uterus, given alone [2]: 50%
- estrogenic effect (in words) ([2]; immature mice, s.c., three days): could be seen only at the higher concentrations investigated
- inhibition of estradiol induced effect in mouse uterus [3]: 20%
- anti-estrogenic effect (in words) [3]: possessed anti-estrogenic effects
- effect with estradiol (in words) [3]: anti-
- reduction in the weights of mice uterus, with estradiol [3]: 20%

- IC50 [4]: 5 to 10 µM
Structure (SMILES): OCCC/C(=C(/c1ccccc1)c1ccc(O)cc1)c1ccccc1 [6, (E)-isomer]

- IC50 [4]: < 5 µM
Structure (SMILES): ClCC/C(=C(\c1ccccc1)c1ccc(OCCN2CCCC2)cc1)c1ccccc1 [Compound 25, 4-chloro-1,2-diphenyl-1-[4-[2-(1-pyrrolidinyl)-ethoxy]phenyl]-1-butene]
- increase in uterus weight ([2]; 5 mg/kg): ≤ 55%
- inhibition of estradiol-induced uterus weight increase [3]: 68-100%
- amount of new tumours (in words) [5]: the amount of new tumours decreased
- growth rate of the tumours (in words) [5]: the growth rate of the tumours decreased

- IC50 [1]: 0.1 to 1 µM
Structure (SMILES): Oc1ccc(C2CCOC2(c2ccccc2)c2ccc(O)cc2)cc1 (centres unmarked) [Compound 9, 2-phenyl-2,3-bis(4-hydroxyphenyl)-tetrahydrofuran]
- effect given alone: estrogenic (in words) [2]: estrogenic
- increase in the weights of mice uterus, given alone [2]: 50%
- effect with estradiol (in words) [3]: not anti-
- reduction in the weights of mice uterus, with estradiol [3]: < 10%

- IC50 [1]: 10 to 100 µM
- IC50 [4]: 5 to 10 µM
Structure (SMILES): CN(C)CCOc1ccc([C@@]2(c3ccccc3)OCC[C@@H]2c2ccccc2)cc1 (relative stereo) [Compound 16, 2,3-diphenyl-2-[4-[2-(N,N-dimethylamino)-ethoxy]phenyl]-tetrahydrofuran]
- estrogenic effect of their own (in words) [2]: no estrogenic effect of their own
